{"source": "ChEMBL document CHEMBL1152560", "about": "“Substituted 2-arylbenzothiazoles as kinase inhibitors: hit-to-lead optimization” (Bioorg Med Chem, 2009)", "key": {"[1]": {"molecular_target": "T1, Serine/threonine-protein kinase Sgk2 (Homo sapiens) (UniProt Q9HBY8)", "T1 sequence (whole entry)": "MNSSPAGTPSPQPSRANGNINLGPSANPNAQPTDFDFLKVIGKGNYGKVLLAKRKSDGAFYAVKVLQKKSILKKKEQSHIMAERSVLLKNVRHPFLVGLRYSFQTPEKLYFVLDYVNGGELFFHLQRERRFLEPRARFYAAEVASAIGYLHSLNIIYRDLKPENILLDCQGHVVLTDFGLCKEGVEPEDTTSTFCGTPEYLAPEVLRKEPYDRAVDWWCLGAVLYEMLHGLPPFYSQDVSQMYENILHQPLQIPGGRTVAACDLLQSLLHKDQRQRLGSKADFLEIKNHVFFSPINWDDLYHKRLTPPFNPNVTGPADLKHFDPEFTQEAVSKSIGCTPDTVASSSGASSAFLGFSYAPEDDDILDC", "test": "Residual activity of SGK2 at 1 uM by microplate scintillation counting"}, "[2]": {"molecular_target": "Calcium/calmodulin-dependent protein kinase type 1D (Homo sapiens) (UniProt Q8IU85)", "test": "Residual activity of CAMK1D at 1 uM by microplate scintillation counting"}, "[3]": {"molecular_target": "Homeodomain-interacting protein kinase 3 (Homo sapiens) (UniProt Q9H422)", "sequence (Q9H422 whole entry, looked up)": "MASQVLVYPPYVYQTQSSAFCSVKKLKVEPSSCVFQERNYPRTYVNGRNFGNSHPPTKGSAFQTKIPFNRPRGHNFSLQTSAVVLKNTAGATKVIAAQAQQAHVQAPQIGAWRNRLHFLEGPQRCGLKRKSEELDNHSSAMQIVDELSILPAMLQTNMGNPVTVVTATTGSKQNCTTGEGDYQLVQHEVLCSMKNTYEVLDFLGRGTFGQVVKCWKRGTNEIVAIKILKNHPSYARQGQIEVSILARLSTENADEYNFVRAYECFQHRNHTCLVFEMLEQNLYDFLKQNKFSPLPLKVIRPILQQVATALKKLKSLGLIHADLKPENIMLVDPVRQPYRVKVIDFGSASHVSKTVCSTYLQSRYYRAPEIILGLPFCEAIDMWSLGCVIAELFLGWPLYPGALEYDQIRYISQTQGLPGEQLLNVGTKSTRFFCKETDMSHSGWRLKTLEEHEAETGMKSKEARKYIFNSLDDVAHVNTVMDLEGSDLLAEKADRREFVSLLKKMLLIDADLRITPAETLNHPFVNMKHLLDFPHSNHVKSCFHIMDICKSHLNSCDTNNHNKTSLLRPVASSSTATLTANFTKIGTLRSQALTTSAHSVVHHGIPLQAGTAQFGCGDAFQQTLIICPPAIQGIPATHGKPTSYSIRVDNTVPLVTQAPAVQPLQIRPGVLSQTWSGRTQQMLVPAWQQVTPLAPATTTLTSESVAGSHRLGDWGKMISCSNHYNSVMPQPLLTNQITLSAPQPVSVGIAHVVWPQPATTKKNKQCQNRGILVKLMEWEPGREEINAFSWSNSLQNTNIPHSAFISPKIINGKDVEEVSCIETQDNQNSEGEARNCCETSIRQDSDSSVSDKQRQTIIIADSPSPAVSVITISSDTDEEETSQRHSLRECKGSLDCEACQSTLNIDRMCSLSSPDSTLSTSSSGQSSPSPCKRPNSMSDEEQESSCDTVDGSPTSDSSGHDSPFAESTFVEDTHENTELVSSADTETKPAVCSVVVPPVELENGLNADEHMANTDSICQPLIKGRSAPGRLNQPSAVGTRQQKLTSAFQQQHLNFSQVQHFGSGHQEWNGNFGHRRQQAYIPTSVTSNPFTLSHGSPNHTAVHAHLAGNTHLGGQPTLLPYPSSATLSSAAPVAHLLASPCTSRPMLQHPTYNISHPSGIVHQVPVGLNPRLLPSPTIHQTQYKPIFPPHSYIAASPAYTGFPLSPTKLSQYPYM", "test": "Residual activity of HIPK3 at 10 uM by microplate scintillation counting"}, "[4]": {"molecular_target": "Proto-oncogene tyrosine-protein kinase ROS (Homo sapiens) (UniProt P08922)", "test": "Residual activity of ROS at 0.1 uM by microplate scintillation counting"}, "[5]": {"molecular_target": "RAC-alpha serine/threonine-protein kinase (Homo sapiens) (UniProt P31749)", "test": "Residual activity of AKT1 at 1 uM by microplate scintillation counting"}, "[6]": {"molecular_target": "CDK4/Cyclin D3 (Homo sapiens) (UniProt P11802+P30281)", "test": "Residual activity of CDK4/Cyclin D3 at 1 uM by microplate scintillation counting", "assay_type": "protein-complex assay"}, "[7]": {"molecular_target": "T2, Aurora kinase A (Homo sapiens) (UniProt O14965)", "T2 sequence (whole entry)": "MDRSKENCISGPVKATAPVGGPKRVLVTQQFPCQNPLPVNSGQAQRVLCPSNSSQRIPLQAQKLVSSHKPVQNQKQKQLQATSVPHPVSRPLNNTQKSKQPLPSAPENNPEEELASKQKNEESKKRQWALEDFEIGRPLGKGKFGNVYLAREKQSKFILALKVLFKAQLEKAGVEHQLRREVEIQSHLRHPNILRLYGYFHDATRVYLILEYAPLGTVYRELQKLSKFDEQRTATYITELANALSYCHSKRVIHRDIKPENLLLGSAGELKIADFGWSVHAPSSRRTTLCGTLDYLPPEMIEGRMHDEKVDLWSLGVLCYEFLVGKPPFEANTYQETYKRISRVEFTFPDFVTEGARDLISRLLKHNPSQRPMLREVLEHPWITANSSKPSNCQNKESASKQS", "test": "Residual activity of Aurora-A at 10 uM by microplate scintillation counting"}, "[8]": {"molecular_target": "Activated CDC42 kinase 1 (Homo sapiens) (UniProt Q07912)", "sequence (Q07912 whole entry, looked up)": "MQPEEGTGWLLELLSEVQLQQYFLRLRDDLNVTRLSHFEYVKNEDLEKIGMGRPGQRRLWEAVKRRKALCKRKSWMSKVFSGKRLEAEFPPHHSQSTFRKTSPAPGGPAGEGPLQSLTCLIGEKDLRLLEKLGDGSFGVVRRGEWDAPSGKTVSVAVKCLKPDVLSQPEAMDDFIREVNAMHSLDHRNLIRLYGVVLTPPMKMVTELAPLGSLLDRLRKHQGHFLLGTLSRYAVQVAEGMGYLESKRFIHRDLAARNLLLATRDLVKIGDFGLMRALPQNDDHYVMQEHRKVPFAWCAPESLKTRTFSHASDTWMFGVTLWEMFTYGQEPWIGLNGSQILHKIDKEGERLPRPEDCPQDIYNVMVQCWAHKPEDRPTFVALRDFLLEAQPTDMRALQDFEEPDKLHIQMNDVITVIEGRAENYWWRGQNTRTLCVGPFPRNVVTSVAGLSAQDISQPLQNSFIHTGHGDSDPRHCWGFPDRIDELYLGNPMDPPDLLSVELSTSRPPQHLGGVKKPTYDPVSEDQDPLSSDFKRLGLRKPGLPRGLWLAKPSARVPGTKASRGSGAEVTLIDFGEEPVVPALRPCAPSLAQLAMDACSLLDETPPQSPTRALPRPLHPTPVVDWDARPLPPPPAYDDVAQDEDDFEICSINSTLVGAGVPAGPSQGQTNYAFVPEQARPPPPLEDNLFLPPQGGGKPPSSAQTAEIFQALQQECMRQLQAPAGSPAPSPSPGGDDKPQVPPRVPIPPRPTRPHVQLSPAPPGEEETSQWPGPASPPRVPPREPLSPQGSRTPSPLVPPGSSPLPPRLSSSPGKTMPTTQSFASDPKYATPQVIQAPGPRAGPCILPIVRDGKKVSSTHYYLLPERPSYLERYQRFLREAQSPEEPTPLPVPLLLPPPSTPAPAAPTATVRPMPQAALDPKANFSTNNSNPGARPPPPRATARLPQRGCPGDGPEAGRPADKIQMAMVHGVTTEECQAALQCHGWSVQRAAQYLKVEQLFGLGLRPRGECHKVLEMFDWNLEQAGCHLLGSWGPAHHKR", "test": "Residual activity of ACK1 at 10 uM by microplate scintillation counting"}, "[9]": {"molecular_target": "Tyrosine-protein kinase JAK2 (Homo sapiens) (UniProt O60674)", "test": "Residual activity of JAK2 at 10 uM by microplate scintillation counting"}, "[10]": {"molecular_target": "Casein kinase I isoform gamma-1 (Homo sapiens) (UniProt Q9HCP0)", "sequence (Q9HCP0 whole entry, looked up, canonical isoform)": "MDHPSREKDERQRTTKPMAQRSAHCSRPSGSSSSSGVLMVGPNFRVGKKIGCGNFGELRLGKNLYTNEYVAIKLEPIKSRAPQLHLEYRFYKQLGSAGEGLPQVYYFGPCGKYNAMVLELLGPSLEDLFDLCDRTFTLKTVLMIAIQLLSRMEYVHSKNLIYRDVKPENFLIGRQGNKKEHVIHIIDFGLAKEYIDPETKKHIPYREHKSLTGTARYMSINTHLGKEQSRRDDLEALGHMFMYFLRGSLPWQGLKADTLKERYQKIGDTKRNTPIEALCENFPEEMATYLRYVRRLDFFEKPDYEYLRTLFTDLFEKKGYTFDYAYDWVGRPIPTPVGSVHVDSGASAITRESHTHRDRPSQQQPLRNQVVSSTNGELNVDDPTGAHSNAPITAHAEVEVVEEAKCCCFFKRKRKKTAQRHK", "test": "Residual activity of CK1gamma1 at 1 uM by microplate scintillation counting"}, "[11]": {"molecular_target": "Mast/stem cell growth factor receptor Kit (Homo sapiens) (UniProt P10721)", "test": "Residual activity of wild type KIT at 1 uM by microplate scintillation counting"}, "[12]": {"molecular_target": "Fibroblast growth factor receptor 2 (Homo sapiens) (UniProt P21802)", "sequence (P21802 22-821 limits assumed)": "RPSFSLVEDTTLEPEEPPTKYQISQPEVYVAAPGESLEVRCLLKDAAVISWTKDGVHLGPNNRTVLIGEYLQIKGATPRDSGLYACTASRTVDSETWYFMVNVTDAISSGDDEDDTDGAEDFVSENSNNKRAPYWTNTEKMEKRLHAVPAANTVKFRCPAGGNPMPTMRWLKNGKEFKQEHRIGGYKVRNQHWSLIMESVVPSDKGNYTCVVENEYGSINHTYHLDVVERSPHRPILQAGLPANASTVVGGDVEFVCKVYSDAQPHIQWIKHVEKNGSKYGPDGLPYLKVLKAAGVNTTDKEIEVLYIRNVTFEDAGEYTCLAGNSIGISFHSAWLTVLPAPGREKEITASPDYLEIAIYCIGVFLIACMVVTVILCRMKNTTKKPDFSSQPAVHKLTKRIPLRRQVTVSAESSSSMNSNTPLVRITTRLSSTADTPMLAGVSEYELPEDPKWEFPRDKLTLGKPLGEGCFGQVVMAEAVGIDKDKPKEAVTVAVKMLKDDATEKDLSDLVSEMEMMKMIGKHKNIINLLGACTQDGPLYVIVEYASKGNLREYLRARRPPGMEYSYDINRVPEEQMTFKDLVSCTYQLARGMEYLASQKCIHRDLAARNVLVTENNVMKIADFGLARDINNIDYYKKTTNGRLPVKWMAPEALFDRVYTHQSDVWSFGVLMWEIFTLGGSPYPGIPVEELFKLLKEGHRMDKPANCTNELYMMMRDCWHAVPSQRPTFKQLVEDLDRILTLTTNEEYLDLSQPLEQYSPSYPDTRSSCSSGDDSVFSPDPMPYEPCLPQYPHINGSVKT", "test": "Residual activity of FGFR2 at 1 uM by microplate scintillation counting"}, "[13]": {"molecular_target": "Dual specificity tyrosine-phosphorylation-regulated kinase 1A (Homo sapiens) (UniProt Q13627)", "test": "Residual activity of DYRK1A at 1 uM by microplate scintillation counting"}, "[14]": {"molecular_target": "Cyclin-dependent kinase 4/cyclin D1 (Homo sapiens) (UniProt P11802+P24385)", "test": "Residual activity of CDK4/Cyclin D1 at 1 uM by microplate scintillation counting", "assay_type": "protein-complex assay"}, "[15]": {"molecular_target": "Ephrin type-A receptor 5 (Homo sapiens) (UniProt P54756)", "test": "Residual activity of EPHA5 at 0.1 uM by microplate scintillation counting"}, "[16]": {"molecular_target": "High affinity nerve growth factor receptor (Homo sapiens) (UniProt P04629)", "sequence (P04629 33-796 limits assumed)": "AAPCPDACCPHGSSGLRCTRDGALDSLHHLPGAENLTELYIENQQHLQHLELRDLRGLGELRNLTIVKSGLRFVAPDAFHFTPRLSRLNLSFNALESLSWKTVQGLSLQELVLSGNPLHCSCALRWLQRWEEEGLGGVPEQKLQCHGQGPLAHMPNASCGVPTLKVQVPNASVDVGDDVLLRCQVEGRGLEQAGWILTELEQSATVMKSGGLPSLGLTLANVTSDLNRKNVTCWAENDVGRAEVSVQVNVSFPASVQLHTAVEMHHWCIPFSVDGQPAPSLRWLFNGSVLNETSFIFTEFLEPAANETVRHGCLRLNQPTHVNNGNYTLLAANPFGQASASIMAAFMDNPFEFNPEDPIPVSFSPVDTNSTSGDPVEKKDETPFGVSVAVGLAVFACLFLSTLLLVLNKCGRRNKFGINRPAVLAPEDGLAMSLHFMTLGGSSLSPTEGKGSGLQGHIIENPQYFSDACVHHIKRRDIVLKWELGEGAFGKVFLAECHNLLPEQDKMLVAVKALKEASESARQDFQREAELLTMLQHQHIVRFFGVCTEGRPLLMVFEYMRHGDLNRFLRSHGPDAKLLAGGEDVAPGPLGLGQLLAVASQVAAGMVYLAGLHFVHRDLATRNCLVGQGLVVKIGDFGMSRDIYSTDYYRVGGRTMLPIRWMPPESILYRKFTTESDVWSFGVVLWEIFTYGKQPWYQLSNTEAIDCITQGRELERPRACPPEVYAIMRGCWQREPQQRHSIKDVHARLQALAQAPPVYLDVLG", "test": "Residual activity of TRK-A at 10 uM by microplate scintillation counting"}, "[17]": {"molecular_target": "T3, Calcium/calmodulin-dependent protein kinase type IV (Homo sapiens) (UniProt Q16566)", "T3 sequence (whole entry)": "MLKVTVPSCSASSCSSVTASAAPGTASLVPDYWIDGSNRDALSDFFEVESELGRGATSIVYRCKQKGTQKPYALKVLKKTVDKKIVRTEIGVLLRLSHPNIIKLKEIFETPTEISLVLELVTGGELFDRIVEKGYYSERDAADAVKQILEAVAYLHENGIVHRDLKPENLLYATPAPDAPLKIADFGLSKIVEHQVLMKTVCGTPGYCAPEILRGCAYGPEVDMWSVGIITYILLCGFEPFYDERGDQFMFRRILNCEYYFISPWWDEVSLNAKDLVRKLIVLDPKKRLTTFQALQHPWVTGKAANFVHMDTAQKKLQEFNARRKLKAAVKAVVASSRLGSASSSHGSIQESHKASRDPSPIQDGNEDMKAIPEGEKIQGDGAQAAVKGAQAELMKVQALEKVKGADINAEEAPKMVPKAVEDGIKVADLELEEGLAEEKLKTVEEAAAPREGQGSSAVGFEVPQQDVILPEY", "test": "Residual activity of CAMK4 at 10 uM by microplate scintillation counting"}, "[18]": {"molecular_target": "Tyrosine-protein kinase Fer (Homo sapiens) (UniProt P16591)", "test": "Residual activity of FER at 1 uM by microplate scintillation counting"}, "[19]": {"molecular_target": "T4, Mitogen-activated protein kinase 12 (Homo sapiens) (UniProt P53778)", "T4 sequence (whole entry)": "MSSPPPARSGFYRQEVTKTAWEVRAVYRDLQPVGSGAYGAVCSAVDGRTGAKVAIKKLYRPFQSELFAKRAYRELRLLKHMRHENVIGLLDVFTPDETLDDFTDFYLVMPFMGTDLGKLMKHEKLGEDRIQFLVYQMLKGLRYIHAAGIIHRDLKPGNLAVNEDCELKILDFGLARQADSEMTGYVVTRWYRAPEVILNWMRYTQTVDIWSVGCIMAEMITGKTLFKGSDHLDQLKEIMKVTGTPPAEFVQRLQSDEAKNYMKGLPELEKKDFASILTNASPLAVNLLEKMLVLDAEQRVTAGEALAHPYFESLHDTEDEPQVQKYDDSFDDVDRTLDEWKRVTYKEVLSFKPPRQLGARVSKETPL", "test": "Residual activity of p38-gamma at 1 uM by microplate scintillation counting"}, "[20]": {"molecular_target": "MAP/microtubule affinity-regulating kinase 3 (Homo sapiens) (UniProt P27448)", "sequence (P27448 whole entry, looked up)": "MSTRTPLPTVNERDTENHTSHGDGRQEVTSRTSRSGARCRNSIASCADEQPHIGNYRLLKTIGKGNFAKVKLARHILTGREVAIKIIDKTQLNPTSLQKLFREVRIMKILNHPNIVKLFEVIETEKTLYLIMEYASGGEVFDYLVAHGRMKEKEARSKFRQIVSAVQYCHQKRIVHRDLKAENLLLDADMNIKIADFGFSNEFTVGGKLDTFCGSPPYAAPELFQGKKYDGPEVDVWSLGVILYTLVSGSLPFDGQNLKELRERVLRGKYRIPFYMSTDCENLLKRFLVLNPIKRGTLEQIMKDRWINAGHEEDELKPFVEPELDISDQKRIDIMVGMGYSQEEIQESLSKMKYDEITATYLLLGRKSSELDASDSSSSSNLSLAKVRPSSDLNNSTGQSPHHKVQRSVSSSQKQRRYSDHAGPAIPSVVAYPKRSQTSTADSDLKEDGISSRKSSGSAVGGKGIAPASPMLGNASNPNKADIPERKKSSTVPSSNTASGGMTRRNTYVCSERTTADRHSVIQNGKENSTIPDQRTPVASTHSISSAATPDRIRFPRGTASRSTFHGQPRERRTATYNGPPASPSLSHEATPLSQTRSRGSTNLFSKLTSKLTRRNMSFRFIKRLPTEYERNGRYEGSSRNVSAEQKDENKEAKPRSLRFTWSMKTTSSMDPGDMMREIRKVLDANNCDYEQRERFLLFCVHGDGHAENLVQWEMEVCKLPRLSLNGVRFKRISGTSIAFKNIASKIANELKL", "test": "Residual activity of MARK3 at 1 uM by microplate scintillation counting"}}}
{"smiles": "COc1cc2c(Oc3ccc(-c4nc5ccccc5s4)cc3)ncnc2cc1OCCCN1CCN(C)CC1", "values": [{"measurement": "residual activity", "setting": "[1]", "result": 95, "unit": "%"}, {"measurement": "residual activity", "setting": "[2]", "result": 87, "unit": "%"}, {"measurement": "residual activity", "setting": "[3]", "result": 132, "unit": "%"}, {"measurement": "residual activity", "setting": "[4]", "result": 91, "unit": "%"}, {"measurement": "residual activity", "setting": "[5]", "result": 109, "unit": "%"}, {"measurement": "residual activity", "setting": "[6]", "result": 95, "unit": "%"}, {"measurement": "residual activity", "setting": "[7]", "result": 5, "unit": "%"}, {"measurement": "residual activity", "setting": "[8]", "result": 35, "unit": "%"}, {"measurement": "residual activity", "setting": "[9]", "result": 67, "unit": "%"}, {"measurement": "residual activity", "setting": "[10]", "result": 112, "unit": "%"}, {"measurement": "residual activity", "setting": "[11]", "result": 124, "unit": "%"}, {"measurement": "residual activity", "setting": "[12]", "result": 111, "unit": "%"}, {"measurement": "residual activity", "setting": "[13]", "result": 93, "unit": "%"}, {"measurement": "residual activity", "setting": "[14]", "result": 100, "unit": "%"}, {"measurement": "residual activity", "setting": "[15]", "result": 81, "unit": "%"}, {"measurement": "residual activity", "setting": "[16]", "result": 81, "unit": "%"}, {"measurement": "residual activity", "setting": "[17]", "result": 227, "unit": "%"}, {"measurement": "residual activity", "setting": "[18]", "result": 107, "unit": "%"}, {"measurement": "residual activity", "setting": "[19]", "result": 105, "unit": "%"}, {"measurement": "residual activity", "setting": "[20]", "result": 93, "unit": "%"}]}
{"smiles": "COc1cc2c(Oc3ccc(-c4nc5ccccc5s4)cc3F)ncnc2cc1OCCCN1CCN(C)CC1", "values": [{"measurement": "residual activity", "setting": "[1]", "result": 93, "unit": "%"}, {"measurement": "residual activity", "setting": "[2]", "result": 91, "unit": "%"}, {"measurement": "residual activity", "setting": "[3]", "result": 142, "unit": "%"}, {"measurement": "residual activity", "setting": "[4]", "result": 98, "unit": "%"}, {"measurement": "residual activity", "setting": "[5]", "result": 100, "unit": "%"}, {"measurement": "residual activity", "setting": "[6]", "result": 86, "unit": "%"}, {"measurement": "residual activity", "setting": "[7]", "result": 4, "unit": "%"}, {"measurement": "residual activity", "setting": "[8]", "result": 40, "unit": "%"}, {"measurement": "residual activity", "setting": "[9]", "result": 60, "unit": "%"}, {"measurement": "residual activity", "setting": "[10]", "result": 110, "unit": "%"}, {"measurement": "residual activity", "setting": "[11]", "result": 128, "unit": "%"}, {"measurement": "residual activity", "setting": "[12]", "result": 120, "unit": "%"}, {"measurement": "residual activity", "setting": "[13]", "result": 91, "unit": "%"}, {"measurement": "residual activity", "setting": "[14]", "result": 94, "unit": "%"}, {"measurement": "residual activity", "setting": "[15]", "result": 97, "unit": "%"}, {"measurement": "residual activity", "setting": "[16]", "result": 34, "unit": "%"}, {"measurement": "residual activity", "setting": "[17]", "result": 211, "unit": "%"}, {"measurement": "residual activity", "setting": "[18]", "result": 96, "unit": "%"}, {"measurement": "residual activity", "setting": "[19]", "result": 125, "unit": "%"}, {"measurement": "residual activity", "setting": "[20]", "result": 91, "unit": "%"}]}
{"smiles": "COc1cc2c(Oc3ccc(-c4nc5ccccc5s4)cc3)ncnc2cc1OCCCN1CCCC1", "values": [{"measurement": "residual activity", "setting": "[1]", "result": 93, "unit": "%"}, {"measurement": "residual activity", "setting": "[2]", "result": 92, "unit": "%"}, {"measurement": "residual activity", "setting": "[3]", "result": 147, "unit": "%"}, {"measurement": "residual activity", "setting": "[4]", "result": 84, "unit": "%"}, {"measurement": "residual activity", "setting": "[5]", "result": 97, "unit": "%"}, {"measurement": "residual activity", "setting": "[6]", "result": 105, "unit": "%"}, {"measurement": "residual activity", "setting": "[7]", "result": 4, "unit": "%"}, {"measurement": "residual activity", "setting": "[8]", "result": 31, "unit": "%"}, {"measurement": "residual activity", "setting": "[9]", "result": 67, "unit": "%"}, {"measurement": "residual activity", "setting": "[10]", "result": 97, "unit": "%"}, {"measurement": "residual activity", "setting": "[11]", "result": 129, "unit": "%"}, {"measurement": "residual activity", "setting": "[12]", "result": 107, "unit": "%"}, {"measurement": "residual activity", "setting": "[13]", "result": 92, "unit": "%"}, {"measurement": "residual activity", "setting": "[14]", "result": 98, "unit": "%"}, {"measurement": "residual activity", "setting": "[15]", "result": 103, "unit": "%"}, {"measurement": "residual activity", "setting": "[16]", "result": 55, "unit": "%"}, {"measurement": "residual activity", "setting": "[17]", "result": 88, "unit": "%"}, {"measurement": "residual activity", "setting": "[18]", "result": 103, "unit": "%"}, {"measurement": "residual activity", "setting": "[19]", "result": 112, "unit": "%"}, {"measurement": "residual activity", "setting": "[20]", "result": 91, "unit": "%"}]}
